Drawing on PubChem BioAssay AID248 (DTP/NCI, 2004), this text covers T/C for 21 compounds.

The test system of this test is L1210 leukemia ip in BDF1 mice, survival T/C. The test can be described thus: NCI In Vivo Anticancer Drug Screen. Data for tumor model L1210 Leukemia (intraperitoneal) in B6D2F1 (BDF1) mice. The following applies: endpoint: mean survival time, higher = longer survival. In short, it runs like this:
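Survival endpoint. Drug-treated group vs vehicle group, expressed as T divided by C. Tumor passaged by transplantation.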

Setting [1] is: dose: 100.0 mg/kg/injection, schedule: Q04DX003 (ip), vehicle: Klucel (hydroxypropylcellulose) (HPC).
Setting [2] is: dose: 200.0 mg/kg/injection, schedule: Q04DX003 (ip), vehicle: Klucel (hydroxypropylcellulose) (HPC).
[3] abbreviates: dose: 400.0 mg/kg/injection, schedule: Q04DX003 (ip), vehicle: Klucel (hydroxypropylcellulose) (HPC).
[4] abbreviates: dose: 100.0 mg/kg/injection, schedule: Q04DX003 (ip), vehicle: saline.
The mark [5] stands for this setting: dose: 200.0 mg/kg/injection, schedule: Q04DX003 (ip), vehicle: saline.
The mark [6] stands for this setting: dose: 400.0 mg/kg/injection, schedule: Q04DX003 (ip), vehicle: saline.
Where [7] appears, read: dose: 100.0 mg/kg/injection, schedule: Q01DX009 (ip), vehicle: Klucel (hydroxypropylcellulose) (HPC).
Setting [8] is: dose: 200.0 mg/kg/injection, schedule: Q01DX009 (ip), vehicle: Klucel (hydroxypropylcellulose) (HPC).
Where [9] appears, read: dose: 50.0 mg/kg/injection, schedule: Q01DX001 (ip), vehicle: carboxymethylcellulose (CMC).
The mark [10] stands for this setting: dose: 100.0 mg/kg/injection, schedule: Q01DX001 (ip), vehicle: carboxymethylcellulose (CMC).
Where [11] appears, read: dose: 200.0 mg/kg/injection, schedule: Q01DX001 (ip), vehicle: carboxymethylcellulose (CMC).
Setting [12] is: dose: 400.0 mg/kg/injection, schedule: Q01DX001 (ip), vehicle: carboxymethylcellulose (CMC).
Where [13] appears, read: dose: 100.0 mg/kg/injection, schedule: Q04DX003 (ip), vehicle: saline with Tween-80.
The mark [14] stands for this setting: dose: 200.0 mg/kg/injection, schedule: Q04DX003 (ip), vehicle: saline with Tween-80.
Setting [15] is: dose: 400.0 mg/kg/injection, schedule: Q04DX003 (ip), vehicle: saline with Tween-80.
[16] abbreviates: dose: 100.0 mg/kg/injection, schedule: Q01DX009 (ip), vehicle: saline with Tween-80.
The mark [17] stands for this setting: dose: 200.0 mg/kg/injection, schedule: Q01DX009 (ip), vehicle: saline with Tween-80.
Where [18] appears, read: dose: 100.0 mg/kg/injection, schedule: Q04DX002 (ip), vehicle: Klucel (hydroxypropylcellulose) (HPC).
Setting [19] is: dose: 200.0 mg/kg/injection, schedule: Q04DX002 (ip), vehicle: Klucel (hydroxypropylcellulose) (HPC).
Setting [20] is: dose: 400.0 mg/kg/injection, schedule: Q04DX002 (ip), vehicle: Klucel (hydroxypropylcellulose) (HPC).

Where “and” joins values, the source holds several entries; their conditions need not be identical. Equal entries are not always repeated. Inconclusive results and toxic doses are left out.

For the compound `Cc1cc(Br)ccc1NNS(=O)(=O)c1cccc(N)c1`, the T/C is 98 % of control (dose: 100.0 mg/kg/injection, schedule: Q01DX001 (ip), vehicle: Klucel (hydroxypropylcellulose) (HPC)); 91 % of control under setting [1]; 107 % of control (dose: 200.0 mg/kg/injection, schedule: Q01DX001 (ip), vehicle: Klucel (hydroxypropylcellulose) (HPC)); 97 % of control under setting [2]; 91 % of control (dose: 400.0 mg/kg/injection, schedule: Q01DX001 (ip), vehicle: Klucel (hydroxypropylcellulose) (HPC)); 107 % of control under setting [3].

`CC1CC(Cc2ccccc2CC2CC(C)OC2=O)C(=O)O1` (stereo unspecified): the T/C was 90 % of control under setting [4], 89 % of control under setting [5] and 89 % of control under setting [6].

For `CCOC(=O)/C=C(\CBr)OC`, the T/C (dose: 12.5 mg/kg/injection, schedule: Q01DX009 (ip), vehicle: Klucel (hydroxypropylcellulose) (HPC)) was 105 % of control; the T/C (dose: 25.0 mg/kg/injection, schedule: Q01DX009 (ip), vehicle: Klucel (hydroxypropylcellulose) (HPC)) is 98 % of control; the T/C (dose: 25.0 mg/kg/injection, schedule: Q04DX003 (ip), vehicle: Klucel (hydroxypropylcellulose) (HPC)) is 90 % of control; the T/C (dose: 50.0 mg/kg/injection, schedule: Q01DX009 (ip), vehicle: Klucel (hydroxypropylcellulose) (HPC)) was 94 % of control and 103 % of control; the T/C (dose: 50.0 mg/kg/injection, schedule: Q04DX003 (ip), vehicle: Klucel (hydroxypropylcellulose) (HPC)) was 96 % of control; the T/C under setting [1] was 96 % of control.

For `O=C(Nc1ccc(O)cc1)Nc1cccc(Cl)c1Cl`, the T/C is, setting by setting: under setting [7], 97 % of control; under setting [8], 92 % of control; (dose: 400.0 mg/kg/injection, schedule: Q01DX009 (ip), vehicle: Klucel (hydroxypropylcellulose) (HPC)) 103 % of control.

As to `CCOC(=O)CN1C(=O)Cc2ccccc21`, the T/C (dose: 75.0 mg/kg/injection, schedule: Q04DX002 (ip), vehicle: saline with Tween-80) was 101 % of control; the T/C (dose: 150.0 mg/kg/injection, schedule: Q04DX002 (ip), vehicle: saline with Tween-80) was 108 % of control; the T/C (dose: 300.0 mg/kg/injection, schedule: Q04DX002 (ip), vehicle: saline with Tween-80) was 104 % of control.

As for `Nn1cnnc1N/N=C/c1ccccc1Cl`, the T/C under setting [9] was 94 % of control, the T/C under setting [10] is 96 % of control, the T/C under setting [11] is 94 % of control and the T/C under setting [12] is 90 % of control.

`CC1=C2[C@H]3OC(=O)[C@H](C)[C@@H]3CC[C@@]2(C)C=CC1=O`: the T/C is, setting by setting: (dose: 100.0 mg/kg/injection, schedule: Q01DX001 (ip), vehicle: other) 103 % of control; (dose: 200.0 mg/kg/injection, schedule: Q01DX001 (ip), vehicle: other) 95 % of control.

On to `O=[N+]([O-])c1ccc(Oc2ccc(Cl)cc2Cl)c([N+](=O)[O-])c1`, for which the T/C by setting is: (dose: 100.0 mg/kg/injection, schedule: Q01DX001 (ip), vehicle: saline with Tween-80) 103 % of control; under setting [13], 105 % of control; (dose: 200.0 mg/kg/injection, schedule: Q01DX001 (ip), vehicle: saline with Tween-80) 94 % of control; under setting [14], 102 % of control; (dose: 222.0 mg/kg/injection, schedule: Q01DX Z (ip), vehicle: methylcellulose (MC)) 100 % of control; (dose: 333.0 mg/kg/injection, schedule: Q01DX Z (ip), vehicle: methylcellulose (MC)) 92 % of control. Moreover, the T/C by setting is: (dose: 400.0 mg/kg/injection, schedule: Q01DX001 (ip), vehicle: saline with Tween-80) 97 % of control; under setting [15], 99 % of control; (dose: 500.0 mg/kg/injection, schedule: Q01DX Z (ip), vehicle: methylcellulose (MC)) 95 % of control.

As to `CCOC(=O)c1c[nH]n2c(=S)ncnc12`, the T/C under setting [16] was 96 % of control; the T/C under setting [13] was 98 % of control; the T/C under setting [17] was 97 % of control; the T/C under setting [14] was 104 % of control; the T/C under setting [15] was 102 % of control.

Take `COc1ccc(OC)c2c1CCCC2`: the T/C is 106 % of control under setting [7] and 117 % of control under setting [8].

For the compound `CNC(=O)Nc1ccc(C)cc1`, the T/C under setting [10] is 108 % of control, the T/C under setting [11] is 111 % of control and the T/C under setting [12] was 111 % of control.

Regarding `CS(=O)(=O)Nc1ccc(Nc2c3ccccc3nc3cc(N)ccc23)cc1`, the T/C is 152 % of control (dose: 0.4 mg/kg/injection, schedule: Q01DX009 (ip), vehicle: saline); 100 % of control (dose: 1.25 mg/kg/injection, schedule: Q01DX009 (ip), vehicle: saline); 123 % of control (dose: 4.0 mg/kg/injection, schedule: Q01DX009 (sc), vehicle: saline); 88 % of control (dose: 5.0 mg/kg/injection, schedule: Q01DX009 (ip), vehicle: saline); 92 % of control (dose: 20.0 mg/kg/injection, schedule: Q01DX001 (ip), vehicle: saline); 89 % of control (dose: 40.0 mg/kg/injection, schedule: Q01DX001 (ip), vehicle: saline).

Turning to `COc1ccc(-c2nnc(-c3ccc(OC)cc3)nn2)cc1`, the T/C under setting [18] is 103 % of control, the T/C under setting [19] is 87 % of control and the T/C under setting [20] is 87 % of control.

Take `FC(F)(F)c1nc(S)cc(=S)[nH]1`: the T/C is, setting by setting: (dose: 50.0 mg/kg/injection, schedule: Q01DX Z (ip), vehicle: methylcellulose (MC)) 96 % of control; (dose: 100.0 mg/kg/injection, schedule: Q01DX Z (ip), vehicle: methylcellulose (MC)) 93 % of control.

`CCCCOC(=O)c1ccc(NC(=S)NC(=O)COc2ccccc2)cc1`: the T/C under setting [18] was 118 % of control, the T/C under setting [19] was 101 % of control and the T/C under setting [20] is 97 % of control.

For the compound `O=P(CCl)(CCCl)CCCl`, the T/C (dose: 50.0 mg/kg/injection, schedule: Q04DX003 (ip), vehicle: saline) is 101 % of control; the T/C under setting [4] was 103 % of control; the T/C under setting [5] is 103 % of control; the T/C under setting [6] is 89 % of control.

Regarding `O=C(O)C(CS(=O)(=O)O)Nc1ncnc2nc[nH]c12` (stereo unspecified), the T/C reads like this: (dose: 100.0 mg/kg/injection, schedule: Q01DX001 (ip), vehicle: saline) 93 % of control; (dose: 200.0 mg/kg/injection, schedule: Q01DX001 (ip), vehicle: saline) 98 % of control; (dose: 400.0 mg/kg/injection, schedule: Q01DX001 (ip), vehicle: saline) 98 % of control.

As for `CCCCCCCCCCCCCCCCSC1CC(=O)N(c2ccc3c(c2)Cc2ccccc2-3)C1=O` (stereo unspecified), the T/C runs as follows: under setting [1], 96 % of control; under setting [2], 96 % of control; under setting [3], 100 % of control.

As for `NOCc1c(F)c(F)c(F)c(F)c1F`, the T/C runs as follows: (dose: 100.0 mg/kg/injection, schedule: Q04DX003 (ip), vehicle: saline sonified) 93 % of control; (dose: 200.0 mg/kg/injection, schedule: Q04DX003 (ip), vehicle: saline sonified) 104 % of control.

On to `COc1ccc(/C=N/NC(=O)CNC(=O)c2ccc(Cl)c(Cl)c2)cc1OC`, for which the T/C (dose: 50.0 mg/kg/injection, schedule: Q01DX009 (ip), vehicle: saline with Tween-80) is 91 % of control; the T/C under setting [16] is 91 % of control; the T/C under setting [17] was 102 % of control.

Turning to `c1ccc(C2NC2c2ccccc2)cc1` (stereo unspecified), the T/C is 112 % of control under setting [9]; 97 % of control under setting [10]; 103 % of control under setting [1]; 97 % of control under setting [11]; 95 % of control under setting [2]; 91 % of control under setting [3].
